Results taken from US20080318949A1, “Pyrazolopyrimidinone Derivatives, Their Preparation And Their Use” (Topharman Shanghai Co., Ltd, priority 2005, published 2008).

How the values were obtained:
[1] = target: T1, PDE5 from human platelets (Homo sapiens, UniProt O76074); experiment: PDE5 inhibitory activity test (scintillation proximity assay); format: biochemical
T1 construct: from tissue; host or cells: human platelets
Source text: (§1) The PDE5 and PDE3 were isolated form human platelets, while the PDE6 was isolated form bovine retinas. The enzyme inhibitory activity test conducted immediately after the enzymes had been isolated, using a scintillation proximity assay for the direct detection of AMP/GMP by the TRKQ7100 and TRKQ7090 kit. In summary, the effect of PDE inhibitors was investigated by assaying a fixed amount of enzyme in the presence of varying inhibitor concentrations and low substrate. The final assay volume was made up to 100 μl with 10 μl assay buffer (50 mM Tris/HCl PH 7.5, 8.3 mM MgCl2, 1.7 mM EGTA), and water. Reactions were initiated with enzyme, incubate for 30 minutes at 30° C. and terminated with 50 μl yttrium silicate SPA beads suspension containing zinc sulphate. Shook for 20 minutes and settled for 30 minutes in the dark, then counted on a BECKMAN LS6500 MULTI-PURPOSE SCINTILLATION COUNTER. The IC50 value for the compounds according the present invention was calculated according the counts.
According to the above-mentioned method, the inhibitory activities of some compounds of formula IA and IB according to the invention against PDE5 from human platelets were determined.

male KM mouse = experiment: Acute oral toxicity test; format: in vivo; conditions: single oral dose of 3 g/kg, 10 or 11 mice per group
Description: In this test male KM mouse weighting 18-22 g were used, and 10 or 11 mouse were assigned randomly to each group. […] The animals were fasted for 12 hours before the administration.

PDE6 from bovine retina = target: T2, PDE6 from bovine retina (Bos taurus, UniProt P11541+P23439); experiment: PDE6 inhibitory activity test (scintillation proximity assay); format: biochemical; conditions: for IC50: PDE6 from bovine retina; for PDE6 IC50/PDE5 IC50: selectivity of PDE5 versus PDE6
T2 construct: the PDE6 was isolated form bovine retinas; from tissue; host or cells: bovine retina
T2 sequence (P11541 2-856 limits assumed): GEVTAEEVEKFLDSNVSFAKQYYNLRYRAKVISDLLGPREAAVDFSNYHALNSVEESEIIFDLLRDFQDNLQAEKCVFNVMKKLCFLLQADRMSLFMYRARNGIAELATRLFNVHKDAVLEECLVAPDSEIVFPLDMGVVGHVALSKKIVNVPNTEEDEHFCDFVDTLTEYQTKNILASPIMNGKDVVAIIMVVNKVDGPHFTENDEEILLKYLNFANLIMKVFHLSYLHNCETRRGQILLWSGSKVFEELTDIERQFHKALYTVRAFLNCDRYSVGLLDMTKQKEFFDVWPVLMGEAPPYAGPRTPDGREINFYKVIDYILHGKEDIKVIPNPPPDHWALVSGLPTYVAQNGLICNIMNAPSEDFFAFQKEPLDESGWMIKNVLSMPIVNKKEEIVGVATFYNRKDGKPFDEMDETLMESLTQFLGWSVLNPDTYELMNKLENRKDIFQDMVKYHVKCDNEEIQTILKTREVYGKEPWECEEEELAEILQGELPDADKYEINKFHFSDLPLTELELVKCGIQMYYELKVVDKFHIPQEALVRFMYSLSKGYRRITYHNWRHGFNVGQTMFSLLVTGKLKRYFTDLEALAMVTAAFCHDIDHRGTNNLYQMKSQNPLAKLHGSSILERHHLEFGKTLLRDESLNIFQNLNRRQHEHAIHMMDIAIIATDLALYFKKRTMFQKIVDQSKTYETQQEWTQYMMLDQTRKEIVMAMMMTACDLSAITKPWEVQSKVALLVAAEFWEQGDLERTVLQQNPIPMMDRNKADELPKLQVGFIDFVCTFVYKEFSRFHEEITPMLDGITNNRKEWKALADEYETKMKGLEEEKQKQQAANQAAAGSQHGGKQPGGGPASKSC
T2 sequence (P23439 2-850 limits assumed): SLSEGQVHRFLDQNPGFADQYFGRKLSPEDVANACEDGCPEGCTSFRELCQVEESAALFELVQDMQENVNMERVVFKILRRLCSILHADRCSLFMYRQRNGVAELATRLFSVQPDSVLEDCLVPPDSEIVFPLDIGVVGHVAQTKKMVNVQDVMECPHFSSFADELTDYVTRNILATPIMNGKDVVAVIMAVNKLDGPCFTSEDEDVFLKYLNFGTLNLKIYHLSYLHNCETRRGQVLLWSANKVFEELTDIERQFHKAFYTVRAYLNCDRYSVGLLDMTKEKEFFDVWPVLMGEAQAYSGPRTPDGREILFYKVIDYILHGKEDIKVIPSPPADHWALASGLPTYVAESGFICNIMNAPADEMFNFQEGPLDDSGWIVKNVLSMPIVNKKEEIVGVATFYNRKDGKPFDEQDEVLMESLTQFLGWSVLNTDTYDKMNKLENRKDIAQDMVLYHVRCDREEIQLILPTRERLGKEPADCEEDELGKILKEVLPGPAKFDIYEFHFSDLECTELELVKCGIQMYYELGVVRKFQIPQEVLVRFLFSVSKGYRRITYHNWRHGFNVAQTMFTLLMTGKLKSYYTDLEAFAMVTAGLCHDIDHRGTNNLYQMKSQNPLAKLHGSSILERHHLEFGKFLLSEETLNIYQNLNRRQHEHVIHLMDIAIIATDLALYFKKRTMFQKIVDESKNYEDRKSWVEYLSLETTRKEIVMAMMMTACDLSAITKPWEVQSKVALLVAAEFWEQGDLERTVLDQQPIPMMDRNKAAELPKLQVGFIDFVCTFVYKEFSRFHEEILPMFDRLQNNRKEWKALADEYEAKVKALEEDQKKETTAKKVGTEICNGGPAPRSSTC
Source text: as §1

rat corpora cavernosa = experiment: Pharmacodynamic test: intracavernous pressure on electric stimulation of the cavernous nerve; format: in vivo; conditions: anesthetized male SD rats, 5 mg/kg orally, ratio of ICP to MBp
Description: The test was carried out based on the methods reported (International Journal of Impotence Research 2002, 14, 251 and The Journal of Urology 1992, 147, 1124). After fasted for 12 hours, 4 male SD rats were randomized into each group. After anesthetizing the rats with sodium pentobarbital (50 mg/kg, i.p.), the penile skin was incised and the prepuce was degloved to expose completely the corpora cavernosa (CC). A needle linked to an electrophysiology instrument was inserted into the CC on the right side in order to measure the intracavernous pressure (ICP). The right carotid artery was cannulated in a similar manner to the polyethylene tube in order to monitor the mean blood pressure (MBp) continuously. […] Electric stimulation was performed at 2 Hz, for 60 s with a pulse duration of 5 ms and 3V using a stimulator. The compounds were administrated orally (5 mg/kg). The change of the ICP and MBp were monitored continuously before and after the administration. The effect of the compounds on the erection induced by electric stimulation was evaluated by the ratio of ICP to MBp. The parameter (ICP/MBp) was used to estimate the influence of the compounds to the rat corpora cavernosa. […] The statistical significance of the differences between groups was calculated using Duncan's multiple comparison.

IC50 ([1]; PDE5 in the PDE6 selectivity table) [nM] | IC50 (PDE6 from bovine retina) [nM] | PDE6 IC50/PDE5 IC50 (PDE6 from bovine retina) | Compound | IC50 ([1]; PDE5 from human platelets) [nM] | Number of death (male KM mouse) | mortality rate (male KM mouse) [%] | ICP/BP (rat corpora cavernosa)
 |  |  | 1-methyl-5-{2-propoxy-5-[[1-ethyl-1-(3-morpholin-1-yl)propyl]amidosulfonyl]phenyl}-3-n-propyl-1,6-dihydro-7H-pyrazolo[4,3-d]pyrimidin-7-one [Example 112] | 12.1 | 2 | 20 | 
0.056 | 32.9 | 588 | 1-methyl-5-{2-propoxy-5-[bis(2-nicotinoyloxyethyl)amidosulfonyl]phenyl}-3-n-propyl-1,6-dihydro-7H-pyrazolo[4,3-d]pyrimidin-7-one [Example 3] | 0.056 |  |  | 
 |  |  | 1-methyl-5-{2-propoxy-5-[bis(3-methoxypropyl)amidosulfonyl]phenyl}-3-n-propyl-1,6-dihydro-7H-pyrazolo[4,3-d]pyrimidin-7-one [Example 103] | 5.61 | 0 | 0 | 
 | 56.5 | 425 | CCCOc1ccc(S(=O)(=O)N(CCO)CCO)cc1-c1nc2c(CCC)nn(C)c2c(=O)[nH]1 [Example 2, 1-methyl-5-{2-propyloxy-5-[bis(2-hydroxyethyl)amidosulfonyl]phenyl}-3-n-propyl-1,6-dihydro-7H-pyrazolo[4,3-d]pyrimidin-7-one] | 0.133 |  |  | 
 | 131 | 131 | CCCc1nn(C)c2c(=O)[nH]c(-c3cc(S(=O)(=O)N(CCOC(=O)c4cccnc4)CCOC(=O)c4cccnc4)ccc3OCC)nc12 [Example 5, 1-methyl-5-{2-ethoxy-5-[bis(2-nicotinoyloxyethyl)amidosulfonyl]phenyl}-3-n-propyl-1,6-dihydro-7H-pyrazolo[4,3-d]pyrimidin-7-one] | 1.08 |  |  | 
 | 5.71 | 65.6 | CCCOc1ccc(S(=O)(=O)N(CCN2CCOCC2)Cc2ccccc2)cc1-c1nc2c(CCC)nn(C)c2c(=O)[nH]1 [Example 24, 1-methyl-5-{2-propoxy-5-[[1-benzyl-1-(2-morpholin-1-yl)ethyl]amidosulfonyl]phenyl}-3-n-propyl-1,6-dihydro-7H-pyrazolo[4,3-d]pyrimidin-7-one] | 0.087 |  |  | 
 | 93.6 | 279 | CCCc1nn(C)c2c(=O)[nH]c(-c3cc(S(=O)(=O)N(CCN4CCOCC4)Cc4ccccc4)ccc3OCC)nc12 [Example 25, 1-methyl-5-{2-ethoxy-5-[[1-benzyl-1-(2-morpholin-1-yl)ethyl]amidosulfonyl]phenyl}-3-n-propyl-1,6-dihydro-7H-pyrazolol[4,3-d]pyrimidin-7-one] | 0.335 |  |  | 
 |  |  | CCCOc1ccc(S(=O)(=O)N(C)CCN(C)C)cc1-c1cc2c(CCC)nn(C)c2c(=O)[nH]1 [Example 75, 1-methyl-5-{2-propoxy-5-[[1-methyl-1-(2-dimethylamino)]amidosulfonyl]phenyl}-3-n-propyl-1,6-dihydro-7H-pyrazolo[4,3-d]pyrimidin-7-one] |  |  |  | 74.2 ± 7.8
 |  |  | CCCOc1ccc(S(=O)(=O)N(C)CCN2CCCCC2)cc1-c1nc2c(CCC)nn(C)c2c(=O)[nH]1 [Example 78, 1-methyl-5-{2-propoxy-5-[[1-methyl-1-(2-piperidin-1-yl)ethyl]amidosulfonyl]phenyl}-3-n-propyl-1,6-dihydro-7H-pyrazolo[4,3-d]pyrimidin-7-one] | 8.72 |  |  | 71.6 ± 8.3
 |  |  | CCCOc1ccc(S(=O)(=O)N(CCO)CCN2CCOCC2)cc1-c1cc2c(CCC)nn(C)c2c(=O)[nH]1 [Example 95, 1-methyl-5-{2-propoxy-5-[[1-(2-hydroxyethyl)-1-(2-morpholin-1-yl)ethyl]amidosulfonyl]phenyl}-3-n-propyl-1,6-dihydro-7H-pyrazolo[4,3-d]pyrimidin-7-one] |  |  |  | 57.2 ± 10.1
 |  |  | CCCOc1ccc(S(=O)(=O)N(CCCO)CCCOC)cc1-c1nc2c(CCC)nn(C)c2c(=O)[nH]1 [Example 99, 1-methyl-5-{2-propoxy-5-[[1-(3-methoxypropyl)-1-(3-hydroxypropyl)]amidosulfonyl]phenyl}-3-n-propyl-1,6-dihydro-7H-pyrazolo[4,3-d]pyrimidin-7-one] | 4.03 | 1 | 10 | 56.2 ± 9.3
 |  |  | CCCc1nn(C)c2c(=O)[nH]c(-c3cc(S(=O)(=O)N4CCN(C)CC4)ccc3OCC)nc12 [sildenafil, Sildenafil, reference compound] |  | 6 | 60 | 80.1 ± 5.1

Compound | IC50 ([1]; PDE5 in the PDE6 selectivity table) [nM] | IC50 (PDE6 from bovine retina) [nM] | PDE6 IC50/PDE5 IC50 (PDE6 from bovine retina) | IC50 ([1]; PDE5 from human platelets) [nM] | Number of death (male KM mouse) | mortality rate (male KM mouse) [%] | ICP/BP (rat corpora cavernosa)
CCCOc1ccc(S(=O)(=O)N(CCOC(C)=O)CCOC(C)=O)cc1-c1nc2c(CCC)nn(C)c2c(=O)[nH]1 [Example 1, 1-methyl-5-{2-propyloxy-5-[bis(2-acetoxyethyl)amidosulfonyl]phenyl}-3-n-propyl-1,6-dihydro-7H-pyrazolo[4,3-d]pyrimidin-7-one] |  | 16.8 | 210 | 0.08 |  |  | 
CCCc1nn(C)c2c(=O)[nH]c(-c3cc(S(=O)(=O)N(CCOC(C)=O)CCOC(C)=O)ccc3OCC)nc12 [Example 4, 1-methyl-5-{2-ethoxy-5-[bis(2-acetoxyethyl)amidosulfonyl]phenyl}-3-n-propyl-1,6-dihydro-7H-pyrazolo[4,3-d]pyrimidin-7-one] |  | 276 | 82.1 | 3.37 |  |  | 
